For 73 compounds, IC50 and IC90 results are on record in PubChem BioAssay AID449762 (Southern Research Specialized Biocontainment Screening …, 2010).

As usually defined, the IC50 is the concentration at which inhibition is half-maximal. In general, IC90 refers to the concentration at which the effect reaches the 90% level.

This assay concerns M. tuberculosis H37Rv growth inhibition, 7H9 media. Description: M. tuberculosis growth inhibition, HTS (AID 449762).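 As to all read-outs here: bacterial growth assessed after seven days of incubation.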 As to conditions: for IC90: measured here: IC90 growth inhibition.

Each structure is given as a SMILES string. Records with an inconclusive call do not appear. Where only a bound is given, the exact number is not on record here.

On to `C/C=C(\C)C(=O)Nc1cccc(C2=NOC3(C2)C[C@H](C(N)=O)N(C(=O)c2cc([N+](=O)[O-])cc([N+](=O)[O-])c2)C3)c1` (some centres not stated), for which the IC50 is 1.34 µM and the IC90 is 3.37 µM.

For `CCCC(=O)OCCNc1cc(SCCC(=O)OC)c2nonc2c1[N+](=O)[O-]`, the 50% inhibitory concentration (IC50) was 1.49 µM and the IC90 was determined as 5.7 µM.

For `c1ccc(CSc2ccc(-c3ccccn3)nn2)cc1`, the IC50 was 23.4 µM and the IC90 was determined as 26.9 µM.

With `CC(=O)Nc1sc2c(c1-c1nc3ccccc3s1)CCN(C(C)C)C2`, the IC50 is 5.88 µM and the IC90 was 6.66 µM.

As for `CSc1nsc(/C=C/Nc2ccc(O)cc2C)c1C#N`, the IC50 was 27 µM and the IC90 was determined as 43 µM.

`Nc1c(C(=O)NC2CCCCC2)nsc1C(=O)OCC(=O)NC1CCCCC1`: the IC50 is 1.87 µM and the IC90 was 6.02 µM.

Consider `CCOC(=O)c1c(/N=C/N(C)C)sc(/C=N/Nc2ccccc2)c1-c1ccccc1Cl`, for which the IC50 was 81.8 µM and the IC90 was above 100 µM.

On to `Cc1ccc(C(=O)C2CCN(CC(=O)Nc3nc(C)cs3)CC2)cc1`, for which the IC50 was 13.6 µM and the IC90 was 25.2 µM.

As to `CCCCOc1ccc(Br)cc1/C(C)=N/NC1=NCCN1`, the IC50 was 20.7 µM and the IC90 came out at 33.3 µM.

Regarding `COc1c[nH]n(C2CCCCC2)c(=O)c1=O`, the IC50 is 11.8 µM and the IC90 was determined as 18.1 µM.

Take `O=C(c1cc([N+](=O)[O-])cc([N+](=O)[O-])c1)N(Cc1nnc(-c2ccccc2Cl)o1)C1CC1`: the IC50 is 2.59 µM and the IC90 was 8.42 µM.

Turning to `Cn1c(N)c(C(=O)COC(=O)c2ccc([N+](=O)[O-])o2)c(=O)n(C)c1=O`, the IC50 is 2.81 µM and the IC90 is 4.54 µM.

`Nc1ccc2c(c1)Cc1ccccc1-2` showed an IC90 above 100 µM.

For the compound `COc1ccc(NC(=O)c2oc3ccc(S(=O)(=O)N4CCOCC4)cc3c2C)cc1`, the IC50 is 0.68 µM and the IC90 was found to be 7.38 µM.

Consider `Cc1nc([N+](=O)[O-])c(Br)n1CC(=O)c1ccc2ccccc2c1`, for which the IC50 is 2.15 µM and the IC90 came to 11.9 µM.

For `COc1ccc(C(=O)COC(=O)[C@H](C)Nc2ccc(C(F)(F)F)cc2[N+](=O)[O-])cc1`, the half-maximal inhibitory concentration (IC50) was 11.2 µM and the IC90 is above 25 µM.

Take `CCc1ccc(NC(=O)c2ccc(C3SCC(=O)N3CCc3ccccc3)cc2)cc1` (configuration not stated): the IC50 was 97.5 µM and the concentration for an effect of 90% (IC90) was above 100 µM.

With `COc1cccc(CC2(CO)CCCN(Cc3[nH]c4ccc(C)cc4c3C)C2)c1` (configuration not stated), the IC50 is 44 µM and the IC90 was determined as 50.4 µM.

`COc1ccc(N2CN=C3SCC(=O)N3C2)cc1` displayed an IC90 above 100 µM.

`CC(C)Cc1ccc(C(C)C(N)=NCCc2ccccc2)cc1` (configuration not stated): the IC50 was 22.6 µM and the IC90 came to 25.8 µM.

Turning to `O=C(NC1CCCC(C(F)(F)F)C1)c1ccc([N+](=O)[O-])o1` (configuration not stated), the IC50 was 2.71 µM and the IC90 was 12.3 µM.

For `O=c1c2ccccc2nc(/C=C/c2ccccc2)n1-c1ccc(O)cc1`, the IC90 is above 100 µM.

In the case of `Cc1cccc(C)c1Nc1c(-c2ccccn2)nc2ccccn12`, the IC50 is 2.18 µM and the IC90 was 5.73 µM.

For the compound `COc1ccc(C(C)=O)cc1COC(=O)c1ccc2ccccc2n1`, the concentration for half-maximal inhibition (IC50) is 27.8 µM and the IC90 was above 100 µM.

For the compound `CS(=O)(=O)c1ncc(Cl)c(C(=O)Nc2ccc(OC(F)F)cc2)n1`, the IC50 is 5.68 µM and the IC90 amounted to 15.5 µM.

As for `CCCCCCCCNC(=O)CCNC(=O)c1ccc(C(C)(C)C)cc1`, the IC50 was 35.3 µM and the IC90 stood at 44.6 µM.

Consider `COc1ccccc1C1CC(c2ccc(Cl)cc2)Nc2ncnn21` (configuration not stated), for which the IC50 is 11 µM and the IC90 turned out to be 17.7 µM.

With `COc1cccc(/C=N/Nc2ncnc3scc(-c4ccccc4)c23)c1O`, the IC50 is 1.57 µM and the IC90 came to 3.35 µM.

As to `NC(=O)CSc1nnc(COc2ccc3ccccc3c2)o1`, the IC50 is 1.75 µM and the IC90 is above 100 µM.

Take `O=C(CNC(=O)c1ccco1)OCc1ccc(C(=O)Oc2ccccc2)cc1`: the 50% inhibitory concentration (IC50) is 4.52 µM and the IC90 was 16.2 µM.

Regarding `O=C1N/C(=N\N=C\c2ccccn2)SC1Cc1cccc(SC(F)F)c1` (configuration not stated), the IC50 was 73.1 µM and the IC90 is above 100 µM.

With `Cc1cccc(CSc2nc3c(c(-c4cccs4)c2C#N)CN(C)CC3)c1`, the IC90 was above 100 µM.

Consider `Cc1ccc(-c2csc3nc4c5ccccc5c(NCCCN5CCOCC5)nn4c(=O)c23)cc1`, for which the IC50 was 24.7 µM and the IC90 came to 27.7 µM.

`Cn1c(NCC(O)c2ccccc2)nc2c1c(=O)n(Cc1ccc(Cl)c(Cl)c1)c(=O)n2C` (configuration not stated): the IC50 is 7.51 µM and the IC90 was found to be 18.1 µM.

For `Cc1cccc2c1N(CCCOc1ccc(C(C)(C)C)cc1)C(=O)C2=O`, the IC50 was 17.3 µM and the IC90 amounted to 20.7 µM.

On to `CC(C)c1nnc(NC(=O)CCC(=O)N2CCN(c3ccc(Cl)cc3)CC2)s1`, for which the IC50 is 11.8 µM and the IC90 turned out to be 29.5 µM.

As to `Cc1csc(NC(=O)CCCC(=O)O)c1-c1nc2ccccc2s1`, the IC50 is 35.8 µM and the IC90 was 79.6 µM.

Consider `CC(C)C1N=C(c2ccc3c(c2)OCO3)CC(c2ccccc2O)N1` (configuration not stated), for which the IC50 was 20.8 µM and the IC90 was 30.4 µM.

Take `CCCc1ccc(NC(=O)C2CCN(c3cnccn3)CC2)cc1`: the IC50 was 53.9 µM and the IC90 was found to be 78.7 µM.

As for `CC1=CC(=O)c2c(O)ccc(O)c2C1=O`, the IC50 was 8.02 µM and the IC90 is 12.2 µM.

In the case of `c1ccc(CN2CCC3(CCCc4ccccc43)CC2)cc1`, the IC50 was 10.3 µM and the IC90 was 13.6 µM.

For the compound `CCN1/C(=C/c2ccc3cc(C)ccc3[n+]2CC)Sc2ccccc21`, the IC50 is 1.41 µM and the IC90 was determined as 1.61 µM.

On to `N#CC(C#N)=c1ccc2c(c1)N1C3=C(CCCC3)CC3CCCCC31N=2` (configuration not stated), for which the IC50 was 11.5 µM and the IC90 came to 13.1 µM.

For `C/C(CC(=O)Nc1ccc(Cl)cc1C(F)(F)F)=N\NC(N)=S`, the IC50 was 16 µM and the IC90 amounted to 19.5 µM.

In the case of `CCOc1ccc(NC(=S)Nc2cc(-c3ccccc3)[nH]n2)cc1`, the IC50 is 92.6 µM and the IC90 was above 100 µM.

With `C=C(CCC(=O)c1ccccc1)C(=O)c1ccccc1`, the IC50 is 7.32 µM and the IC90 was 18.7 µM.

Regarding `NNC(=S)Nc1ccccc1Cl`, the IC50 was 24.4 µM and the IC90 came to 27.8 µM.

For `CN(C(=O)COC(=O)c1ccc([N+](=O)[O-])cc1Cl)C1CCCCC1`, the IC50 was 12.8 µM and the IC90 came out at 65.6 µM.

As to `CN1CCN(c2c(F)cc3c(=O)c(C(=O)O)cn4c3c2OCN4C)CC1`, the IC50 was 0.72 µM and the IC90 was 0.8 µM.

With `COc1ccc(OC)c(Nc2nc(-c3sc(C)nc3C)cs2)c1`, the half-maximal inhibitory concentration (IC50) was 51.7 µM and the 90% effect concentration (IC90) was above 100 µM.

On to `Clc1ccc(C(Cn2ccnc2)OCc2csc3c(Cl)cccc23)c(Cl)c1` (configuration not stated), for which the IC50 was 15.8 µM and the IC90 was 24.8 µM.

For `CN(C)CCCN(C(=O)c1ccc([N+](=O)[O-])s1)c1nc2cc3c(cc2s1)OCCO3`, the IC50 is 30.7 µM and the IC90 worked out at 45.5 µM.

On to `O=[N+]([O-])c1cccnc1N1CCC(c2cc(-c3cccc(C(F)(F)F)c3)n[nH]2)CC1`, for which the IC50 is 23.1 µM and the IC90 is 26.1 µM.

Consider `CCCC1CCC(C(=O)Nn2c(C)nc3ccccc3c2=O)CC1` (configuration not stated), for which the IC50 is 50.1 µM and the IC90 was above 100 µM.

Turning to `COc1ccc(C(=O)OCCNC(=O)c2c(Cl)nc3ccccn23)cc1`, the IC50 was 10 µM and the IC90 was 16.1 µM.

For `COc1cccc(NC(=S)/C(=C(\[O-])c2cc(C)n(-c3ccccc3F)c2C)[n+]2ccc(N(C)C)cc2)c1`, the IC50 is 55.9 µM and the IC90 amounted to 70.9 µM.

As to `O=C(c1cc(COc2ccc(F)cc2F)on1)N1CCCC(c2ccccc2)C1` (configuration not stated), the IC50 was 17.6 µM and the IC90 was 39.8 µM.

On to `Oc1cc(Nc2ccccc2)cc2cccnc12`, for which the IC50 is 13.8 µM and the 90% effect concentration (IC90) was determined as 26.6 µM.

As to `COc1ccc(C2=CC(c3c(C)nn(-c4ccccc4)c3Cl)n3nnnc3N2)cc1OC` (configuration not stated), the IC50 was 40.8 µM and the IC90 came to 78.9 µM.

`CC(OC(=O)c1cnc2ccccc2n1)c1ccccc1Cl` (configuration not stated): the IC50 was 13.1 µM and the 90% effect concentration (IC90) was found to be 37 µM.

As for `Cc1ccc(S(=O)(=O)NC(CC(C)C)C(=O)N2CCN(C/C=C/c3ccccc3)CC2)cc1` (configuration not stated), the IC50 is 46.8 µM and the concentration for an effect of 90% (IC90) stood at 52.7 µM.

`COc1ccccc1N1CCN(CCCCOc2cccc3ccccc23)CC1`: the IC50 was 34 µM and the IC90 worked out at 44.5 µM.

Take `CC/C(=C(\c1ccc(O)cc1)c1ccc(OCCN(C)C)cc1)c1ccccc1`: the IC50 was 22.5 µM and the IC90 is 35.4 µM.

Turning to `COc1cc(NC(=O)C/C(C)=N/NC(=O)c2ccccn2)c(OC)cc1Cl`, the IC50 is 3 µM and the IC90 was found to be 4.13 µM.

For `c1ccc(-c2nccc(-c3ccc(-n4cnc5ccccc54)cc3)n2)nc1`, the IC50 is 11 µM and the IC90 came out at 16.5 µM.

For `CC1CCC/C(=N\NC(=S)Nc2ccccc2)C1` (configuration not stated), the IC50 was 43.2 µM and the IC90 stood at 67.5 µM.

As to `CN(C)c1ccc(/C=C2\N=C(C(C)(C)C)OC2=O)cc1`, the IC50 was 14.4 µM and the IC90 came to 34.5 µM.

As to `COc1cc2nc(Nc3ccc(C)c(Cl)c3)nc(N)c2cc1OC`, the IC50 was 33.2 µM and the IC90 was determined as 98.8 µM.

Take `CC1CCc2c(sc3ncnc(NCCCOC(C)C)c23)C1` (configuration not stated): the IC50 was 53.2 µM and the IC90 was found to be 67.1 µM.

On to `O=C(Nc1ccc(OC(F)(F)F)cc1)c1ccc2c(c1)no[n+]2[O-]`, for which the IC50 is below 0.2 µM and the IC90 is 0.2 µM.

For `CN(C)c1ccc(N=Nc2ccccc2C(=O)OCC(=O)NCC2CCCCC2)cc1`, the IC50 was 11 µM and the IC90 came out at 13.1 µM.

With `CCc1cc(C(=O)Nc2nc(-c3ccccn3)cs2)sc1C`, the concentration for half-maximal inhibition (IC50) is 1.26 µM and the IC90 came to 15.3 µM.

In the case of `CCOc1ccc(/C=N/OCC(=O)Nc2cc(C)on2)cc1`, the IC50 is 29.4 µM and the IC90 is above 100 µM.
